pIC50: −log10 of the molar value.
Tests used:
[1] = target: T1, human BRD4 bromodomain II (Homo sapiens, UniProt O60885); assay: Bromodomain binding assay (AlphaScreen), BRD4 BDII; conditions: AlphaScreen assay, Table C2; read-out: BRD4 BDII IC50
T1 construct: human BRD4 bromodomain II [based on Genbank NM_058243, residues 349-460]; host or cells: E. coli
How it was run: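 AlphaScreen competition: His6-BRD4 BDI (aa 44-170) or BDII (aa 349-460) vs biotin-H4(1-21) K5/K8/K12/K16Ac peptide; Ni-chelate acceptor/streptavidin donor beads. HEPES pH 7.5, NaCl, CHAPS, BSA, 1% DMSO; RT. 10-pt 3-fold titration, % peptide binding fitted → IC50.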

[2] = system: human SKM-1 acute myeloid leukemia cells; assay: SKM-1 antiproliferation cell-based assay (ATPlite); conditions: Homo sapiens, SKM-1, 96 h, SKM-1 antiproliferation assay, 4 days, Table C2
How it was run: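 Log-phase cells in RPMI 1640/15% FBS were seeded at 34722 cells/mL and exposed for 4 days to nine-concentration DMSO serial dilutions in triplicate. Viability was read as ATP luminescence (ATPlite 1step), and IC50 values came from variable-slope non-linear regression.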

Row | Compound | pIC50 [1] | GI50 [2] [nM]
1 | Cn1ccn(-c2ccc(-c3cc(F)cc(-c4cncc(N5CC[C@@H](O)[C@H](N)C5)c4)c3O)cc2Cl)c1=O [Example 495, 1-(3′-(5-((3R,4R)-3-amino-4-hydroxypiperidin-1-yl)pyridin-3-yl)-3-chloro-5′-fluoro-2′-hydroxy-[1,1′-biphenyl]-4-yl)-3-methyl-1H-imidazol-2(3H)-one] | 8.00 to 9.00 | 30 to 300
2 | Cc1cccn(-c2ccc(-c3cc(F)cc(-c4ccnc(N5CCNCC5)c4)c3O)cc2Cl)c1=O [Example 496, 1-(3-chloro-5′-fluoro-2′-hydroxy-3′-(2-(piperazin-1-yl)pyridin-4-yl)-[1,1′-biphenyl]-4-yl)-^3-methylpyridin-2(1H)-one] | < 7.00 | ≥ 3000
3 | Cn1ccn(-c2ccc(-c3cc(F)cc(-c4ccnc(N5CCC[C@H](CN)C5)c4)c3O)cc2Cl)c1=O [Example 497, (R)-1-(3′-(2-(3-(aminomethyl)piperidin-1-yl)pyridin-4-yl)-3-chloro-5′-fluoro-2′-hydroxy-[1,1′-biphenyl]-4-yl)-3-methyl-1H-imidazol-2(3H)-one] | 8.00 to 9.00 | 300 to 3000
4 | Cn1cnn(-c2ccc(-c3cc(F)cc(-c4ccnc(N5CCNCC5)c4)c3O)cc2Cl)c1=O [Example 499, 1-(3-chloro-5′-fluoro-2′-hydroxy-3′-(2-(piperazin-1-yl)pyridin-4-yl)-[1,1′-biphenyl]-4-yl)-^4-methyl-1H-1,2,4-triazol-5(4H)-one] | 8.00 to 9.00 | 30 to 300
5 | Cc1cc(-c2ccnc(N3CCN[C@H](C)C3)c2)c(O)c(-c2ccc(-n3ccn(C)c3=O)c(Cl)c2)c1 [Example 500, (R)-1-(3-chloro-2′-hydroxy-5′-methyl-3′-(2-(3-methylpiperazin-1-yl)pyridin-4-yl)-[1,1′-biphenyl]-4-yl)-3-methyl-1H-imidazol-2(3H)-one] | 8.00 to 9.00 | 0.3 to 30
6 | O=c1ccccn1-c1ccc(-c2cc(F)cc(-c3ccnc(N4CCNCC4)c3)c2O)cc1Cl [Example 502, 1-(3-chloro-5′-fluoro-2′-hydroxy-3′-(2-(piperazin-1-yl)pyridin-4-yl)-[1,1′-biphenyl]-4-yl)pyridin-2(1H)-one] | < 7.00 | ≥ 3000
7 | CC(=O)Nc1cc(-c2cc(F)cc(-c3ccc(-n4ccn(C)c4=O)c(Cl)c3)c2O)cc(N2CC[C@H](N)C2)n1 [Example 503, (S)-N-(6-(3-aminopyrrolidin-1-yl)-4-(3′-chloro-5-fluoro-2-hydroxy-4′-(3-methyl-2-oxo-2,3-dihydro-1H-imidazol-1-yl)-[1,1′-biphenyl]-3-yl)pyridin-2-yl)acetamide] | 8.00 to 9.00 | 0.3 to 30
8 | Cn1ccn(-c2ccc(-c3cc(F)cc(-c4cc(N5CCNCC5)c5nc[nH]c5c4)c3O)cc2Cl)c1=O [Example 504, 1-(3-chloro-5′-fluoro-2′-hydroxy-3′-(4-(piperazin-1-yl)-1H-benzo[d]imidazol-6-yl)-[1,1′-biphenyl]-4-yl)-3-methyl-1H-imidazol-2(3H)-one] | 8.00 to 9.00 | 0.3 to 30
9 | O=c1occn1-c1ccc(-c2cc(F)cc(-c3ccnc(N4CCNCC4)c3)c2O)cc1Cl [Example 505, 3-(3-chloro-5′-fluoro-2′-hydroxy-3′-(2-(piperazin-1-yl)pyridin-4-yl)-[1,1′-biphenyl]-4-yl)oxazol-2(3H)-one] | 8.00 to 9.00 | 30 to 300
10 | CO[C@H]1COC(=O)N1c1ccc(-c2cc(F)cc(-c3ccnc(N4CCNCC4)c3)c2O)cc1Cl [Example 506, (S)-3-(3-chloro-5′-fluoro-2′-hydroxy-3′-(2-(piperazin-1-yl)pyridin-4-yl)-[1,1′-biphenyl]-4-yl)-4-methoxyoxazolidin-2-one] | 7.00 to 8.00 | 300 to 3000
11 | CO[C@@H]1COC(=O)N1c1ccc(-c2cc(F)cc(-c3ccnc(N4CCNCC4)c3)c2O)cc1Cl [Example 507, (R)-3-(3-chloro-5′-fluoro-2′-hydroxy-3′-(2-(piperazin-1-yl)pyridin-4-yl)-[1,1′-biphenyl]-4-yl)-4-methoxyoxazolidin-2-one] | 7.00 to 8.00 | 300 to 3000
12 | Cc1cc(-c2cncc(N3CCN[C@H](C)C3)c2)c(O)c(-c2ccc(-n3ccn(C)c3=O)c(Cl)c2)c1 [Example 508, (R)-1-(3-chloro-2′-hydroxy-5′-methyl-3′-(5-(3-methylpiperazin-1-yl)pyridin-3-yl)-[1,1′-biphenyl]-4-yl)-3-methyl-1H-imidazol-2(3H)-one] | 8.00 to 9.00 | 0.3 to 30
13 | Cc1cc(-c2cncc(N3CC[C@H](N)C3)c2)c(O)c(-c2ccc(-n3ccn(C)c3=O)c(Cl)c2)c1 [Example 509, (S)-1-(3′-(5-(3-aminopyrrolidin-1-yl)pyridin-3-yl)-3-chloro-2′-hydroxy-5′-methyl-[1,1′-biphenyl]-4-yl)-3-methyl-1H-imidazol-2(3H)-one] | 8.00 to 9.00 | 0.3 to 30
14 | Cn1ccn(-c2ccc(-c3cc(Cl)cc(-c4cncc(N5CC[C@H](N)C5)c4)c3O)cc2Cl)c1=O [Example 510, (S)-1-(3′-(5-(3-aminopyrrolidin-1-yl)pyridin-3-yl)-3,5′-dichloro-2′-hydroxy-[1,1′-biphenyl]-4-yl)-3-methyl-1H-imidazol-2(3H)-one] | 7.00 to 8.00 | 30 to 300
15 | Cn1ccn(-c2ccc(-c3cc(F)cc(-c4ccnc(N5CC6CCC(C5)N6)c4)c3O)cc2Cl)c1=O [Example 511, 1-(3′-(2-(3,8-diazabicyclo[3.2.1]octan-3-yl)pyridin-4-yl)-3-chloro-5′-fluoro-2′-hydroxy-[1,1′-biphenyl]-4-yl)-3-methyl-1H-imidazol-2(3H)-one] | 8.00 to 9.00 | 0.3 to 30
16 | Cn1ccn(-c2ccc(-c3cc(F)cc(-c4cncc(N5CC6CCC(C5)N6)c4)c3O)cc2Cl)c1=O [Example 512, 1-(3′-(5-(3,8-diazabicyclo[3.2.1]octan-3-yl)pyridin-3-yl)-3-chloro-5′-fluoro-2′-hydroxy-[1,1′-biphenyl]-4-yl)-3-methyl-1H-imidazol-2(3H)-one] | 8.00 to 9.00 | 0.3 to 30

Further lines, results first:

Row | pIC50 [1] | GI50 [2] [nM] | Compound
17 | 8.00 to 9.00 | 0.3 to 30 | CN1CC2(C1)CN(c1cncc(-c3cc(F)cc(-c4ccc(-n5ccn(C)c5=O)c(Cl)c4)c3O)c1)C2 [Example 488, 1-(3-chloro-5′-fluoro-2′-hydroxy-3′-(5-(6-methyl-2,6-diazaspiro[3.3]heptan-2-yl)pyridin-3-yl)-[1,1′-biphenyl]-4-yl)-3-methyl-1H-imidazol-2(3H)-one]
18 | 8.00 to 9.00 | 0.3 to 30 | CN1CC2(C1)CN(c1cc(-c3cc(F)cc(-c4ccc(-n5ccn(C)c5=O)c(Cl)c4)c3O)ccn1)C2 [Example 489, 1-(3-chloro-5′-fluoro-2′-hydroxy-3′-(2-(6-methyl-2,6-diazaspiro[3.3]heptan-2-yl)pyridin-4-yl)-[1,1′-biphenyl]-4-yl)-3-methyl-1H-imidazol-2(3H)-one]
19 | 9.00 to 11.00 | 0.3 to 30 | Cn1ccn(-c2ccc(-c3cc(F)cc(-c4ccnc(N5C[C@@H](N)[C@H](O)C5)c4)c3O)cc2Cl)c1=O [Example 490, 1-(3′-(2-((3R,4R)-3-amino-4-hydroxypyrrolidin-1-yl)pyridin-4-yl)-3-chloro-5′-fluoro-2′-hydroxy-[1,1′-biphenyl]-4-yl)-3-methyl-1H-imidazol-2(3H)-one]
20 | 9.00 to 11.00 | 30 to 300 | Cn1ccn(-c2ccc(-c3cc(F)cc(-c4cncc(N5C[C@@H](N)[C@H](O)C5)c4)c3O)cc2Cl)c1=O [Example 491, 1-(3′-(5-((3R,4R)-3-amino-4-hydroxypyrrolidin-1-yl)pyridin-3-yl)-3-chloro-5′-fluoro-2′-hydroxy-[1,1′-biphenyl]-4-yl)-3-methyl-1H-imidazol-2(3H)-one]
21 | 8.00 to 9.00 | 30 to 300 | [2H]C([2H])([2H])n1ccn(-c2ccc(-c3cc(F)cc(-c4ccnc(N5CC6(CNC6)C5)c4)c3O)cc2Cl)c1=O [Example 492, 1-(3′-(2-(2,6-diazaspiro[3.3]heptan-2-yl)pyridin-4-yl)-3-chloro-5′-fluoro-2′-hydroxy-[1,1′-biphenyl]-4-yl)-3-deuteromethyl-1H-imidazol-2(3H)-one]
22 | 9.00 to 11.00 | 0.3 to 30 | C[C@@H]1CN(c2cc(-c3cc(F)cc(-c4ccc(-n5ccn(C)c5=O)c(Cl)c4)c3O)ccn2)CCN1C [Example 493, (R)-1-(3-chloro-3′-(2-(3,4-dimethylpiperazin-1-yl)pyridin-4-yl)-5′-fluoro-2′-hydroxy-[1,1′-biphenyl]-4-yl)-3-methyl-1H-imidazol-2(3H)-one]
23 | 8.00 to 9.00 | 30 to 300 | CNCc1n[nH]c2ccc(-c3cc(F)cc(-c4ccc(-n5ccn(C)c5=O)c(Cl)c4)c3O)cc12 [Example 494, 1-(3-chloro-5′-fluoro-2′-hydroxy-3′-(3-((methylamino)methyl)-1H-indazol-5-yl)-[1,1′-biphenyl]-4-yl)-3-methyl-1H-imidazol-2(3H)-one]
24 | 9.00 to 11.00 | 0.3 to 30 | Cc1cc(-c2ccnc(N3CC[C@H](N)C3)c2)c(O)c(-c2ccc(-n3ccn(C)c3=O)c(Cl)c2)c1 [Example 498, (S)-1-(3′-(2-(3-aminopyrrolidin-1-yl)pyridin-4-yl)-3-chloro-2′-hydroxy-5′-methyl-[1,1′-biphenyl]-4-yl)-3-methyl-1H-imidazol-2(3H)-one]
25 | 9.00 to 11.00 | 0.3 to 30 | CN(C)[C@H]1CCCN(c2cncc(-c3cc(F)cc(-c4ccc(-n5ccn(C)c5=O)c(Cl)c4)c3O)c2)C1 [Example 501, (S)-1-(3-chloro-3′-(5-(3-(dimethylamino)piperidin-1-yl)pyridin-3-yl)-5′-fluoro-2′-hydroxy-[1,1′-biphenyl]-4-yl)-3-methyl-1H-imidazol-2(3H)-one]
